How the values were obtained:
P2X2/3 = biological target: T1, P2X2/3 (Homo sapiens, UniProt P56373+Q9UBL9); assay: P2X2/3 FLIPR intracellular calcium assay; format: cell-based; conditions: agonist at EC75, species (human or rat) not given
T1 sequence (Q9UBL9 1-471): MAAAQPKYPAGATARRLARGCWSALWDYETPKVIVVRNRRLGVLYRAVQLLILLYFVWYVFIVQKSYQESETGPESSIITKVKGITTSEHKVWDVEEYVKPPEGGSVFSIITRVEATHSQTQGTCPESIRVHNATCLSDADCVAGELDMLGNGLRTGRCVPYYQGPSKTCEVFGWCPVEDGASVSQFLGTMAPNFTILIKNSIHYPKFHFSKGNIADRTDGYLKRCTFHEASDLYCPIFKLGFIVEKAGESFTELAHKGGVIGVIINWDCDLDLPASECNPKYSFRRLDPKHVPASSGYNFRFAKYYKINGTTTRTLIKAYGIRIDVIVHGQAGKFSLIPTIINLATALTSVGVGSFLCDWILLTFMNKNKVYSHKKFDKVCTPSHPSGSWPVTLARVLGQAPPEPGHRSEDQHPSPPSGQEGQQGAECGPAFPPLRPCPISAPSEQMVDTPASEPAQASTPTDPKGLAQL
T1 sequence (P56373 1-397): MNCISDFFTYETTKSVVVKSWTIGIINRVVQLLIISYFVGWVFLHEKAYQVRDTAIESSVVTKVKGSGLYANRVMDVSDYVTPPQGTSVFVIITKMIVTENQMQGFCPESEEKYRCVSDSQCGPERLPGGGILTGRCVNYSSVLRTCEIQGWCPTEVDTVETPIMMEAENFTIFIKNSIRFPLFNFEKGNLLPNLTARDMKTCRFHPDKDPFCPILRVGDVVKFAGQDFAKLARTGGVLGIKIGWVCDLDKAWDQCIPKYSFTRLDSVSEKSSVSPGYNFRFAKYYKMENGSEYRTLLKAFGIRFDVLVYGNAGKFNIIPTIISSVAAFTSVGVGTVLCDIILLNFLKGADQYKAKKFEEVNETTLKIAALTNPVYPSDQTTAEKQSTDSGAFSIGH
How it was run: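 Stable human P2X2/3 TRex293 cells (doxycycline-induced) loaded with Calcium 4 dye; compounds, 11-point half-log series from 2 mM top stock, preincubated 15 min at RT in HBSS/HEPES pH 7.4 with 1.8 mM CaCl2. Agonist added at EC75; fluorescence change versus no-compound wells gave IC50.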

P2X3 = biological target: T2, P2X3 (UniProt P56373); assay: P2X3 FLIPR intracellular calcium assay; format: cell-based; conditions: agonist at EC75, species (human or rat) not given
T2 sequence (P56373 1-397): T1 sequence (P56373 1-397)
How it was run: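 Human P2X3-HEK, human P2X2/3-TRex293, rat P2X2/3-TRex293 or rat P2X3 TRex-CHO cells loaded with Calcium 4 dye (1.8 mM probenecid, pH 7.4).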

Compound | IC50 (P2X2/3) [nM] | IC50 (P2X3) [nM]
Cc1ccc(CNC(=O)c2cc(-n3nnnc3C(C)C)c3ncc(-c4ccc(C)s4)n3c2)cn1 [Example 151] | 100 to 1000 | 1 to 100
CCc1nnnn1-c1cc(C(=O)NCc2ccc(C3CC3)nc2)cn2c(-c3ccc(C)s3)cnc12 [Example 154] | 100 to 1000 | 100 to 1000
Cc1noc(C(C)NC(=O)c2cc(-n3nnnc3C(F)F)c3ncc(-c4ccc(C)s4)n3c2)n1 (stereo in doubt) [Example 19, (R)-8-(5-(Difluoromethyl)-1H-tetrazol-1-yl)-N-(1-(3-methyl-1,2,4-oxadiazol-5-yl)ethyl)-3-(5-methylthiophen-2-yl)imidazo[1,2-a]pyridine-6-carboxamide] | 1 to 100 | 1 to 100
CC[C@H](NC(=O)c1cc(N2CCC(F)(F)CC2)c2ncc(-c3ccc(C)s3)n2c1)c1nnc[nH]1 [Example 144] | 1 to 100 | 100 to 1000
Cc1ccc(CNC(=O)c2cc(-n3nnnc3CC3CC3)c3ncc(-c4ccc(C)s4)n3c2)cn1 [Example 156] | 1 to 100 | > 10000
Cc1ccc(CNC(=O)c2cc(-n3nncc3C(F)F)c3ncc(-c4nnc(C)s4)n3c2)cn1 [Example 5, 8-(5-(Difluoromethyl)-1H-1,2,3-triazol-1-yl)-3-(5-methyl-1,3,4-thiadiazol-2-yl)-N-((6-methylpyridin-3-yl)methyl)imidazo[1,2-a]pyridine-6-carboxamide] | 100 to 1000 | 100 to 1000
Cc1csc(-c2cnc3c(N4CCC(F)(F)CC4)cc(C(=O)N[C@@H](C)c4nnc[nH]4)cn23)c1 [Example 136] | 100 to 1000 | 1 to 100
Cc1ccc(-c2cnc3c(-c4cnn(CC5CC5)c4)cc(C(=O)N[C@@H](C)c4nnc[nH]4)cn23)s1 [Example 104] | 100 to 1000 | 1 to 100
COc1ncc(CNC(=O)c2cc(-n3nncc3C(F)(F)F)c3ncc(-c4ncc(C)s4)n3c2)cn1 [Example 86] | 100 to 1000 | 100 to 1000
Cc1ccc(CNC(=O)c2cc(-n3nnnc3C3CC3)c3ncc(-c4ccc(C)s4)n3c2)cn1 [Example 16, 8-(5-Cyclopropyl-1H-tetrazol-1-yl)-N-((6-methylpyridin-3-yl)methyl)-3-(5-methylthiophen-2-yl)imidazo[1,2-a]pyridine-6-carboxamide] | 100 to 1000 | > 10000
Cc1ccc(CNC(=O)c2cc(N3CCC(C)(C(N)=O)CC3)c3ncc(-c4ccc(C)s4)n3c2)cn1 [Example 148] | 1 to 100 | 1 to 100
Cc1ncc(CNC(=O)c2cc(-n3nncc3C3CCC3)c3ncc(-c4ccc(C)s4)n3c2)cn1 [Example 49] | 1 to 100 | > 10000
CCCc1cnnn1-c1cc(C(=O)NCc2cnc(C)nc2)cn2c(-c3ncc(C)s3)cnc12 [Example 64] | 100 to 1000 | 1 to 100
Cc1ccc(-c2cnc3c(-n4nnnc4C(C)C)cc(C(=O)NCc4ccc(C(F)(F)F)nc4)cn23)s1 [Example 152] | 100 to 1000 | > 10000
CCCSc1cnc2c(N3CCC(C)CC3)cc(C(=O)N[C@@H](C)c3nnc[nH]3)cn12 [Example 10, (S)—N-(1-(4H-1,2,4-Triazol-3-yl)ethyl)-8-(4-methylpiperidin-1-yl)-3-(propylthio)imidazo[1,2-a]pyridine-6-carboxamide] | 1000 to 10000 | 100 to 1000
CCc1ccnn1-c1cc(C(=O)NCc2ccc(C)nc2)cn2c(-c3ccc(C)s3)cnc12 [Example 6, 8-(5-Ethyl-1H-pyrazol-1-yl)-N-((6-methylpyridin-3-yl)methyl)-3-(5-methylthiophen-2-yl)imidazo[1,2-a]pyridine-6-carboxamide] | 100 to 1000 | > 10000
COC1(C)CCN(c2cc(C(=O)N[C@@H](C)c3nnc[nH]3)cn3c(-c4ccc(C)s4)cnc23)C1 (stereo partly drawn) [Example 142] | 100 to 1000 | 1 to 100
Cc1ccc(-c2cnc3c(N4CCC(C)CC4)cc(C(=O)NCc4ccn(C)c(=O)c4)cn23)s1 [Example 128] | 100 to 1000 | 1 to 100
Cc1ccc(-c2cnc3c(Nc4ccccc4)cc(C(=O)N[C@@H](C)c4nnc[nH]4)cn23)s1 [Example 7, (S)—N-(1-(4H-1,2,4-Triazol-3-yl)ethyl)-3-(5-methylthiophen-2-yl)-8-(phenylamino)imidazo[1,2-a]pyridine-6-carboxamide] | 100 to 1000 | 1 to 100
Cc1ccc(CNC(=O)c2cc(-n3nnnc3C(F)F)c3ncc(-c4ncc(C)s4)n3c2)cn1 [Example 173] | 100 to 1000 | 100 to 1000
Cc1ncc(CNC(=O)c2cc(-n3nncc3C3CC3)c3ncc(-c4ccc(C)s4)n3c2)cn1 [Example 41] | 1 to 100 | 1 to 100
Cc1cnc(CNC(=O)c2cc(-n3nncc3C(F)F)c3ncc(-c4ncc(C)s4)n3c2)cn1 [Example 77] | 100 to 1000 | 1 to 100
Cc1ccc(CNC(=O)c2cc(Nc3ccccc3)c3ncc(-c4ccc(C)s4)n3c2)cn1 [Example 91] | 1000 to 10000 | 100 to 1000

Continued, values first:

IC50 (P2X2/3) [nM] | IC50 (P2X3) [nM] | Compound
1 to 100 | 1 to 100 | Cc1ccc(-c2cnc3c(-n4nnnc4CC4CC4)cc(C(=O)N[C@@H](C)c4nnc[nH]4)cn23)s1 [Example 166]
1 to 100 | 1 to 100 | C[C@H](NC(=O)c1cc(-n2nncc2C(F)(F)F)c2ncc(-c3ccc(Cl)s3)n2c1)c1nnc[nH]1 [Example 79]
1000 to 10000 | 100 to 1000 | C[C@H](NC(=O)c1cc(-n2nncc2C(F)F)c2ncc(-c3ccc(C#N)s3)n2c1)c1nnc[nH]1 [Example 51]
100 to 1000 | 1 to 100 | Cc1ccc(-c2cnc3c(-c4cnn(C)c4)cc(C(=O)N[C@@H](C)c4nnc[nH]4)cn23)s1 [Example 8, (S)—N-(1-(4H-1,2,4-Triazol-3-yl)ethyl)-8-(1-methyl-1H-pyrazol-4-yl)-3-(5-methylthiophen-2-yl)imidazo[1,2-a]pyridine-6-carboxamide]
1 to 100 | 1 to 100 | Cc1cnc(-c2cnc3c(-n4nncc4C(F)F)cc(C(=O)N[C@@H](C)c4nnc[nH]4)cn23)s1 [Example 53]
1 to 100 | 1 to 100 | Cc1ccc(-c2cnc3c(-n4nncc4C(C)(F)F)cc(C(=O)N[C@@H](C)c4nnc[nH]4)cn23)s1 [Example 70]
1 to 100 | 1 to 100 | Cc1ccc(-c2cnc3c(-n4nncc4CC(F)(F)F)cc(C(=O)N[C@@H](C)c4nnc[nH]4)cn23)s1 [Example 81]
100 to 1000 | 100 to 1000 | CCc1cnnn1-c1cc(C(=O)N[C@H](c2nnc[nH]2)C(C)C)cn2c(-c3ccc(C)s3)cnc12 [Example 73]
100 to 1000 | 1 to 100 | Cc1ccc(-c2cnc3c(-n4nncc4C)cc(C(=O)N[C@@H](C)c4nnc[nH]4)cn23)s1 [Example 29]
1 to 100 | 1 to 100 | Cc1ccc(-c2cnc3c(-n4nncc4C(F)(F)F)cc(C(=O)N[C@@H](C)c4nnc[nH]4)cn23)s1 [Example 26]
1 to 100 | 1 to 100 | Cc1ccc(-c2cnc3c(-n4nncc4C(C)C)cc(C(=O)N[C@@H](C)c4nnc[nH]4)cn23)s1 [Example 37]
100 to 1000 | 1 to 100 | Cc1ccc(-c2cnc3c(-c4ccnn4C)cc(C(=O)N[C@@H](C)c4nnc[nH]4)cn23)s1 [Example 100]
100 to 1000 | 1 to 100 | Cc1ccc(-c2cnc3c(-c4cnn(CCF)c4)cc(C(=O)N[C@@H](C)c4nnc[nH]4)cn23)s1 [Example 105]

— patent US10316039B2, “P2X3 and/or P2X2/3 compounds and methods” (Asana Biosciences, LLC, priority 2013, dated 2019)
